In article PMC7522027 (Disease Models & Mechanisms, 2020):
“Also recorded” adds a separate entry of the source.

Key:
BMPR1B (ALK6) = target: T1, BMPR1B (ALK6) (Homo sapiens, UniProt O00238); assay: radiometric protein kinase assay, ALK6; assay type: biochemical; settings: [ATP] = 3 μM; Fig. 7G
T1 construct: purchased ProQinase GmbH (Freiburg, Germany); host or cells: bacteria (so in the source)
Procedure: (§2) IC50 values were calculated using Prism 5.04 for Windows (GraphPad, San Diego, CA, USA; www.graphpad.com). The mathematical model used was ‘Sigmoidal response (variable slope)’ with parameters ‘top’ fixed at 100% and ‘bottom’ at 0%. The fitting method used was a least-squares fit.

MEK (MEK1 wt) = target: T2, MEK (MEK1 wt) (Homo sapiens, UniProt Q02750); assay: radiometric protein kinase assay, MEK; assay type: biochemical; settings: [ATP] = 3 μM; Fig. 7H
T2 construct: purchased ProQinase GmbH (Freiburg, Germany); host or cells: bacteria (so in the source)
Procedure: as §2

zebrafish embryos = assay: zebrafish embryo assay (morphological developmental defects at 48 hpf); assay type: in vivo, zebrafish (Danio rerio)
Procedure: Zebrafish eggs obtained from family crosses of Tuebingen long fin zebrafish lines were used to assess the biological activity of all samples. The eggs were washed with fresh E3 medium and subsequently divided over 24-well plates, with ten embryos per well in 1000 µl E3 medium. Samples were added to the wells at various times as mentioned in the figures and legends. At 48 hpf, the zebrafish embryos were inspected for morphological developmental defects. Embryos displaying morphological defects were imaged using a Leica MZFLIII microscope equipped with a Leica DFC320 camera or Leica M165 FC microscope equipped with a Leica DMC5400 camera.

caAlk2 = assay: rescue of caAlk2 mRNA-induced developmental defects in zebrafish embryos; assay type: in vivo; settings: examined at 48 hpf
Procedure: The pCS2+ plasmid encoding caAlk2 with a glutamine to aspartic acid substitution at position 204 was kindly donated by Jeroen Bakkers ([Smith et al., 2009]). The DNA sequences of the inserts in plasmid constructs were verified. Both plasmids were digested with NotI and mRNA was generated with SP6 RNA polymerase using a mMessage mMachine kit (Ambion). The mRNA was purified through phenol/isoamylalcohol/chloroform extraction. Zebrafish embryos were injected into the yolk at the one-cell stage with ∼1 nl of either 50 ng/µl GFP mRNA or a cocktail containing 10 ng/µl caAlk2 and 50 ng/µl GFP mRNA. […] Next, embryos were selected for fluorescence at 24 hpf and examined at 48 hpf. The phenotypes were categorized into three groups: no head; head, no eyes; head and eyes. Finally, the bar graph was generated using Prism 8.3.0 for Windows (GraphPad, San Diego, CA, USA). The presented data are a combination of two repeats of the experiment.

[1] = tested on: BMP2-induced SMAD1/5 phosphorylation; assay: BMP2-induced SMAD1/5 phosphorylation in HepG2 cells (immunoblot); assay type: cell-based, human; settings: HepG2, BMP2 50 ng/ml; high concentrations (range 100 nM to 10 µM)
Procedure: For BMP stimulation, the HepG2 cells (∼50% confluency) were starved on serum-free medium for 6 h. Subsequently, prior to the addition of BMP ligands, the cells were treated with compound for 30 min. Next, the cells were stimulated with BMP2 (50 ng/ml) or BMP6 (50 ng/ml) for 45 min. The cells were then washed with PBS and lysed in Laemmli sample buffer for western blot analysis.
(§1) HepG2 or HEK 293T cells were lysed in Laemmli sample buffer. Proteins were separated by sodium dodecyl sulfate polyacrylamide gel electrophoresis (SDS-PAGE) and transferred onto […] polyvinylidene difluoride (PVDF) membrane (IPVH00010, Merck Millipore). Membranes were blocked using 5% non-fat dry milk in Tris-buffered saline with 0.1% Tween 20 (655204, Merck Millipore) and probed with the respective primary and secondary antibodies. The signal was detected using Clarity™ Western ECL Substrate (1705060, Bio-Rad) and ChemiDoc Imaging System (17001402, Bio-Rad). The antibodies used for immunoblotting were raised against the following proteins: phospho-SMAD1/5/8 ([Persson et al., 1998]; 1:1000), SMAD1 (Cell Signaling Technology, #6944; 1:1000), GAPDH (Merck Millipore, #G8795; 1:5000) and hemagglutinin (HA; Roche, #12CA5; 1:1000).

caALK5 = target: T3, caALK5 (Homo sapiens, UniProt P36897, T204D); assay: caALK5-induced SMAD phosphorylation in HEK 293T cells; assay type: cell-based; settings: 1, 5, 10 µM
T3 construct: expressed in transfected cells; host or cells: HEK 293T
T3 sequence (P36897 34-503 T204D): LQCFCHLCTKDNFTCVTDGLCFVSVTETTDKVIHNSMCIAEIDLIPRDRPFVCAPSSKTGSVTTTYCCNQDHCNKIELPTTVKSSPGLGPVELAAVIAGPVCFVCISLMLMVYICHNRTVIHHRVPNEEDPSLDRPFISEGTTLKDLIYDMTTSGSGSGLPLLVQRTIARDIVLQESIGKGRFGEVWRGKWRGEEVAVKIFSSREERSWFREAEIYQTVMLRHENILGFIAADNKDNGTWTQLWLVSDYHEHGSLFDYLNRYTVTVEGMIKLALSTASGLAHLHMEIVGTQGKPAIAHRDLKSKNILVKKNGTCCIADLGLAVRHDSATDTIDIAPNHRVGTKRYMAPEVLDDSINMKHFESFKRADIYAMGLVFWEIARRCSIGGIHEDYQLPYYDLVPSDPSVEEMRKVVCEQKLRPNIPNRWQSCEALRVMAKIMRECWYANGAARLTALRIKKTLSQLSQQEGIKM
Text: as §1
For experiments with the caALK type I receptor constructs, HEK 293T cells were seeded in 24-well plates at ∼90% confluency and transfected with the DNA expression constructs in the presence of PEI. Thirty hours after transfection, the cells were added to serum-starved medium and treated with compounds for 16 h (overnight). Subsequently, the cells were washed with PBS and lysed in Laemmli sample buffer. […]

T2 sequence (Q02750 whole entry): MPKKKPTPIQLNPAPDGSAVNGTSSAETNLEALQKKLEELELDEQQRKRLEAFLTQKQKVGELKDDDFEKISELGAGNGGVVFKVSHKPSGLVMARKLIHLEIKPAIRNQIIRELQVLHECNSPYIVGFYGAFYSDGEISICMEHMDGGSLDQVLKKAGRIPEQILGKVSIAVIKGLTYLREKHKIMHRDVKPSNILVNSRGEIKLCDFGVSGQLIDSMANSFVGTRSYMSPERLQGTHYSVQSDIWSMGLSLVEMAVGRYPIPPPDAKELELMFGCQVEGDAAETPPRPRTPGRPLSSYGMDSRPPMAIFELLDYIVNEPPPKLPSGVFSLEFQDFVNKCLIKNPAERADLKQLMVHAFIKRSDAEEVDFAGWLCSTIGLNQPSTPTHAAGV
T1 sequence (O00238 14-502): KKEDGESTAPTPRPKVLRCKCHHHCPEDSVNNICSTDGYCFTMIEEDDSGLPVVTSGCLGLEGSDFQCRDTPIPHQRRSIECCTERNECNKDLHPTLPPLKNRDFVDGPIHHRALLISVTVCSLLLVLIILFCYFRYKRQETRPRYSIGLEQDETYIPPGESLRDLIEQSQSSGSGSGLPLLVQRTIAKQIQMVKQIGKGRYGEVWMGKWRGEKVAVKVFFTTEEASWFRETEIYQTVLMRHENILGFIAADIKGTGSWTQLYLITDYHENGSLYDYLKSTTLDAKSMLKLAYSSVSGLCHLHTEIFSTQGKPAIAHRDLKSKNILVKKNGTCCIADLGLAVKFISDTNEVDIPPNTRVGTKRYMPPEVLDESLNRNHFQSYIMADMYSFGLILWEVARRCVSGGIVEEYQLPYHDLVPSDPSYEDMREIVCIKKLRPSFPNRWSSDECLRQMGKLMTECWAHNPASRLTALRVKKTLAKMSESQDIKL

CC(=O)C1=C(O)C=C2Oc3c(C(N)=O)c(O)cc(O)c3[C@]2(C)C1=O [cercosporamide, Cercosporamide]
IC50 (BMPR1B (ALK6)): 390 nM
IC50 (MEK (MEK1 wt)): 4.1 µM
phenotype, combination treatment (zebrafish embryos; 50 nM cercosporamide in combination with 5 µM LDN-193189, from 7 hpf onwards): partial loss of the ventral fin
developmental defects, single treatment (zebrafish embryos; 50 nM, from 7 hpf onwards): did not induce detectable developmental defects
phenotype at 48 hpf (zebrafish embryos; 100 nM, treatment from 7 hpf): abolished the effect
phenotype at 48 hpf (zebrafish embryos; 200 nM, treatment started at 2 hpf): severely truncated phenotype
phenotype at 48 hpf (zebrafish embryos; 200 nM, treatment started at 8 hpf): mild phenotype
phenotype at 48 hpf (zebrafish embryos; 1.5 µM, treatment from 7 hpf): severely truncated phenotype
phenotype at 48 hpf (zebrafish embryos; 3 µM, treatment from 7 hpf): severely truncated phenotype
lethal concentration in zebrafish embryos (zebrafish embryos; treatment from 7 hpf, continuous until 48 hpf): above 3 µM
caAlk2-injected embryos that developed a head with eyes (caAlk2; 100 nM from 2 hpf onwards): 58%
caAlk2-injected embryos that developed a head with eyes (caAlk2; 200 nM from 2 hpf onwards): 86%
effect on BMP2-induced SMAD1/5 phosphorylation [1]: capable of blocking SMAD1/5 phosphorylation
effect on caALK5-induced SMAD1/5 phosphorylation (caALK5): not inhibited; also recorded: only weakly inhibited
